Measurements reported in paper PMC12040169 (PLOS Biology, 2025).

What was measured:
[1] = test system: T1, CTL2-GFP (C. trachomatis L2/434/Bu, GFP-expressing); assay: microbe, parasite or virus in culture; parameters: Intracellular C. trachomatis growth in HeLa cells, bulk GFP fluorescence relative to DMSO; details: Chlamydia trachomatis, HeLa, 28.5 h; bulk GFP, mean of 2; read-out: % of control remaining
T1 construct: L2/434/Bu, GFP-expressing
Protocol: MICs were calculated as described above.

in vitro = assay: in vitro; parameters: Viability of infected HeLa host cells, resazurin conversion, bulk resorufin fluorescence relative to DMSO; details: human, hela cells; bulk resorufin, mean of 2
[2] = test system: T2, C. trachomatis L2/434/Bu expressing GFP (CTL2-GFP); assay: microbe, parasite or virus in culture; parameters: C. trachomatis total inclusion area by high-content imaging, normalised to DMSO; details: Chlamydia trachomatis, HeLa, 28.5 h; total inclusion area; read-out: % of control remaining
T2 construct: L2/434/Bu GFP intracellular growth in HeLa cells
Outline: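 Screening measures GFP fluorescence from the reporter strain and resorufin fluorescence for host viability, with Hoechst-based imaging of fixed cells adding inclusion area, inclusion number and nuclei count per well.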

| SMILES | activity at 1 µM [1] [%] | activity at 5 µM [1] [%] | activity at 10 µM [1] [%] | viability at 28.5 h, 1 µM (in vitro) [%] | viability at 28.5 h, 5 µM (in vitro) [%] | viability at 28.5 h, 10 µM (in vitro) [%] | activity at 1 µM [2] [%] | activity at 5 µM [2] [%] | activity at 10 µM [2] [%] |
| --- | --- | --- | --- | --- | --- | --- | --- | --- | --- |
| Cn1c(=O)c2c(ncn2Cc2ccccc2)n(C)c1=O [CBK133402] | 119 | 115 | 111 | 111 | 110 | 109 | 100 | 51.9 | 66.7 |
| Cn1cc(C(c2ccc(OCC(=O)O)cc2)c2cn(C)c3ccccc23)c2ccccc21 [CBK266403] | 91 | 23.4 | 9.15 | 113 | 111 | 115 | 87.5 | 36 | 2.98 |
| Cc1ccc(S(=O)(=O)Nc2ccc(S(=O)(=O)Nc3nccs3)cc2)c([N+](=O)[O-])c1 [CBK267410] | 17.1 | 7.21 | 1.76 | 110 | 97.6 | 98.2 | 23 | 5.7 | 1.86 |
| CCOc1ccc2nc(NC(=N)N)nc(C)c2c1 [CBK010384C] | 121 | 24.6 | 4.24 | 90.4 | 102 | 94.8 | 87 | 20.7 | 1.75 |
| COc1ccc(S(=O)(=O)Nc2ccc(S(=O)(=O)Nc3nccs3)cc2)c([N+](=O)[O-])c1 [CBK266801] | 13.9 | 4.96 | 0 | 110 | 123 | 119 | 26.3 | 5.01 | 1.27 |
| Cc1cccc(-c2ccc(CC3(C(N)=O)CCN(C(=O)CCc4ccccc4)CC3)cc2)c1 [CBK285796] | 133 | 4.53 | 4.56 | 91.6 | 96.9 | 106 | 113 | 4.18 | 1.3 |
| Cc1ccc(OCc2ccccc2)c(C(CCN(C(C)C)C(C)C)c2ccccc2)c1 (stereo not drawn) [CBK017906] | 148 | 124 | 61.5 | 91.6 | 92.3 | 86 | 112 | 73.2 | 22 |
| c1c(C2CC2)[nH]c2nc(N3CCCC3)nc(N3CCCC3)c12 [CBK016707G] | 3.94 | 11.1 | 20.9 | 99.1 | 96.9 | 86.9 | 0.765 | 0.748 | 3.52 |
| Cc1noc(-c2ccc3c(c2O)OCCO3)c1-c1ccc(Cl)cc1 [CBK018086] | 62.5 | 3.44 | 2.13 | 96.5 | 97.6 | 99 | 73.6 | 0.782 | 0.691 |
| CCc1nnc(NS(=O)(=O)c2ccc(N/C=C3\C(=O)N(c4ccc(Cl)cc4)N=C3C)cc2)s1 [CBK262416] | 91.1 | 26.1 | 13.2 | 91.9 | 94.3 | 93.3 | 102 | 50.5 | 27 |
| CC(C)(CN)CN(Cc1ccccc1Br)C(=O)NC(c1ccccc1)c1ccccc1 [CBK002488C] | 150 | 114 | 85.7 | 92.2 | 93.1 | 90 | 112 | 116 | 38.2 |
| FC(F)(F)c1ccc(N2CCNCC2)nc1OCc1ccc2c(c1)OCCO2 [CBK003994A] | 106 | 40.3 | 22.5 | 100 | 103 | 96.6 | 82.5 | 8.88 | 7.41 |
